From patent publication US11944111B2, “Stabilizing sorbic acid in beverage syrup” (PepsiCo, Inc., priority 2015, dated 2024)
Like-named read-outs stand apart in the source and are kept apart here.

Tests used:
[1] = cited from earlier work
[2] = UV-vis 263 nm, saturated solution
Text: According to the Lambert-Beer Law, the concentration of sorbic acid is proportional to absorption intensity (Abs(Intesity)=K [Sorbic Acid]).

[3] = aqueous solution, pH between 2.5 and 4, about 20 C

Row | Compound | solubility of sorbic acid in high acid syrup ([1]; 60% brix syrup) [%] | sorbate concentration at which sorbic acid precipitation begins [1, 3] | sorbate concentration at which the tendency to precipitate is clear [1, 3] [ppm] | Abs (pH 2.5) ([2]; aged at 40 F. 0 day) | Abs (pH 2.5) ([2]; aged at 40 F. 7 days) | Abs (pH 3.0) ([2]; aged at 40 F. 7 days) | Stability (crystals) (aged at 40 F. 0 day) | Stability (crystals) (aged at 40 F. 7 days)
1 | C/C=C/C=C/C(=O)O [sorbic acid] | 0.08 | about 500 ppm | 1300 | – | – | – | – | –
2 | C/C=C/C=C/C(=O)[O-].[K+] [Potassium Sorbate] | – | – | – | 1.644 | 1.357 | 1.24 | no crystals | lot of crystals
